# Assay: HCV replicon assay (luciferase reporter, ET cell line)
# Type: cell-based
# Conditions: Hepatitis C virus, HCV replicon luciferase activity in ET cells
# Procedure: A cell line, ET (Huh-lucubineo-ET) is used for screening of compounds for inhibiting HCV RNA dependent RNA polymerase. The ET cell line is stably transfected with RNA transcripts harboring a I389 luc-ubi-neo/NS3-3′/ET; replicon with firefly luciferase-ubiquitin-neomycin phosphotransferase fusion protein and EMCV-IRES driven NS3-5B polyprotein containing the cell culture adaptive mutations (E1202G; T1280I; K1846T) (Krieger at al, 2001 and unpublished). The ET cells are grown in DMEM (Dulbeco's Modified Eagle's Medium), supplemented with 10% fetal calf serum, 2 mM Glutamine, Penicillin (100 IU/mL)/Streptomycin (100 μg/mL), 1× nonessential amino acids, and 250 μg/mL G418 (“Geneticin”). They are all available through Life Technologies (Bethesda, Md.). The cells are plated at 0.5−1.0×10^4 cells/well in the 96 well plates and incubated for 24 hrs before adding test compound. The compounds are added to the cells to achieve a final concentration of 0.1 nM to 50 μm and a final DMSO (dimethylsulfoxide) concentration of 0.5%. Luciferase activity is measured 48-72 hours later by adding a lysis buffer and the substrate (Catalog number Glo-lysis buffer E2661 and Bright-Glo luciferase system E2620 Promega, Madison, Wis.). Cells should not be too confluent during the assay. Percent inhibition of replication data is plotted relative to no compound control. Under the same condition, cytotoxicity of the compounds are determined using cell proliferation reagent, WST-1 (Roche, Germany). The compounds showing antiviral activities, but no significant cytotoxicities are chosen to determine EC50 and TC50. For these determinations, a 10 point, 2-fold serial dilution for each compound was used, which spans a concentration range of 1000 fold. EC50 and similarly TC50 values were calculated by fitting % inhibition at each concentration to the following equation:
# % inhibition=100%/[(EC50/[I])^b+1]
# where b is Hill's coefficient.
# % inhibition values at a specific concentration, […] for example, can also be derived from the equation above.
row,SMILES,inhibition at 10 µM
1,"O=C(c1nc2c(C(F)(F)F)cc(-c3ccoc3)cn2c1Cl)N1CCCC(c2cccc(F)c2)C1 (centres unmarked) [Compound 549, (3-Chloro-6-furan-3-yl-8-trifluoromethyl-imidazo[1,2-a]pyridin-2-yl)-[3-(3-fluoro-phenyl)-piperidin-1-yl)-methanone]",94.3%
2,O=C(c1nc2c(C(F)(F)F)cc(-c3ccoc3)cn2c1Br)N1CCC(c2ccccc2F)C1 (centres unmarked) [Compound 448],99.2%
3,"O=C(c1nc2c(C(F)(F)F)cc(-c3cn[nH]c3)cn2c1Cl)N1CC[C@H](c2ccccc2)C1 [Compound 466, [3-Chloro-6-(1H-pyrazol-4-yl)-8-trifluoromethyl-imidazo[1,2-a]pyridin-2-yl]-(3-(R)-phenyl-pyrrolidin-1-yl)-methanone]",90.4%
4,"O=C(NCc1cccs1)c1cn2nc(-c3ccccc3)cc(C(F)(F)F)c2n1 [Compound 248, 6-Phenyl-8-trifluoromethyl-imidazo[1,2-b]pyridazine-2-carboxylic Acid (thiophen-2-ylmethyl)-amide]",45.8%
5,"O=C(c1nc2c(C(F)(F)F)cc(-c3ccco3)cn2c1Cl)N1CCCC1c1ccccc1 (centres unmarked) [Compound 322, (3-Chloro-6-furan-2-yl-8-trifluoromethyl-imidazo[1,2-a]pyridin-2-yl)-(2-phenyl-pyrrolidin-1-yl)-methanone]",78.7%
6,"Cc1noc(C2CCN(C(=O)c3nc4c(C(F)(F)F)cc(-c5cn[nH]c5)cn4c3Cl)C2)n1 (centres unmarked) [Compound 476, [3-Chloro-6-(1H-pyrazol-4-yl)-8-trifluoromethyl-imidazo[1,2-a]pyridin-2-yl]-[3-(3-methyl-[1,2,4]oxadiazol-5-yl)-pyrrolidin-1-yl]-methanone]",72%
7,"N#Cc1cc(C(F)(F)F)c2nc(C(=O)NCc3cccs3)c(Cl)n2c1 [Compound 309, 3-Chloro-6-cyano-8-trifluoromethyl-imidazo[1,2-a]pyridine-2-carboxylic Acid (thiophen-2-ylmethyl)-amide]",1.8%
8,"O=C(c1nc2c(C(F)(F)F)cc(-c3ccoc3)cn2c1-c1ccoc1)N1CCC(c2ccc(F)cc2)C1 (centres unmarked) [Compound 254, (3,6-Di-furan-3-yl-8-trifluoromethyl-imidazo[1,2-a]pyridin-2-yl)-[3-(4-fluoro-phenyl)-pyrrolidin-1-yl]-methanone]",46.9%
9,"O=C(NCCc1cccc(F)c1)c1nc2c(C(F)(F)F)cc(-c3ccoc3)cn2c1Cl [Compound 406, 3-Chloro-6-furan-3-yl-8-trifluoromethyl-imidazo[1,2-a]-pyridine-2-carboxylic acid [2-(3-fluoro-phenyl)-ethyl]-amide]",82.5%
10,"O=C(c1nc2c(C(F)(F)F)cc(-c3ccoc3)cn2c1Cl)N1CCC(c2ccccn2)C1 (centres unmarked) [Compound 468, (3-Chloro-6-furan-3-yl-8-trifluoromethyl-imidazo[1,2-a]pyridin-2-yl)-(3-pyridin-2-yl-pyrrolidin-1-yl)-methanone]",93.9%
11,"CC(C)c1cc(-c2ccccc2)cn2c(Br)c(C(=O)N3CCC(c4cccc(F)c4)C3)nc12 (centres unmarked) [Compound 647, (3-Bromo-8-isopropyl-6-phenyl-imidazo[1,2-a]pyridin-2-yl)-[3-(3-fluoro-phenyl)-pyrrolidin-1-yl]-methanone]",58.6%
12,"CN(C)CCNC(=O)[C@@H]1CN(C(=O)c2nc3c(C(F)(F)F)cc(-c4ccoc4)cn3c2Cl)C[C@H]1c1ccccc1 (stereo in doubt) [Compound 224, 1-(3-Chloro-6-furan-3-yl-8-trifluoromethyl-imidazo[1,2-a]pyridine-2-carbonyl)-4-phenyl-pyrrolidine-3-carboxylic Acid (2-dimethylamino-ethyl)-amide]",98.7%
13,"O=C(NC(c1ccccc1)c1ccccn1)c1nc2c(C(F)(F)F)cc(-c3ccoc3)cn2c1Cl (centres unmarked) [Compound 410, 3-Chloro-6-furan-3-yl-8-trifluoromethyl-imidazo[1,2-a]pyridine-2-carboxylic Acid (phenyl-pyridin-2-yl-methyl)-amide]",99.1%
14,"Cc1cscc1-c1cc(C(F)(F)F)c2nc(C(=O)NCc3cccs3)c(Cl)n2c1 [Compound 209, 3-Chloro-6-(4-methyl-thiophen-3-yl)-8-trifluoromethyl-imidazo[1,2-a]pyridine-2-carboxylic acid (thiophen-2-ylmethyl)-amide]",83.4%
15,"O=C(c1nc2c(C(F)(F)F)cc(-c3ccoc3)cn2c1Cl)N1CC[C@H](c2ccccc2)C1 [Compound 261, (3-Chloro-6-furan-3-yl-8-trifluoromethyl-imidazo[1,2-a]pyridin-2-yl)-(3-(R)-phenyl-pyrrolidin-1-yl)-methanone]",87.9%
16,"O=C(NCCc1cccs1)c1nc2c(C(F)(F)F)cc(-c3ccco3)cn2c1Cl [Compound 185, 3-Chloro-6-furan-2-yl-8-trifluoromethyl-imidazo[1,2-a]pyridine-2-carboxylic acid (2-thiophen-2-yl-ethyl)-amide]",95.7%
17,"O=C(NC1CN(C(=O)Cc2ccccc2)C1)c1nc2c(C(F)(F)F)cc(-c3ccoc3)cn2c1Cl [Compound 514, 3-Chloro-6-furan-3-yl-8-trifluoromethyl-imidazo[1,2-a]pyridine-2-carboxylic Acid (1-phenylacetyl-azetidin-3-yl)-amide]",6.6%
18,"O=C(c1nc2c(C(F)(F)F)cc(-c3ccoc3)cn2c1Cl)N1CCN(c2ccc(F)cc2F)CC1 [Compound 596, (3-Chloro-6-furan-3-yl-8-trifluoromethyl-imidazo[1,2-a]pyridin-2-yl)-[4-(2,4-difluoro-phenyl)-piperazin-1-yl]-methanone]",75.6%
19,"O=C(NCc1cccs1)c1nc2c(C(F)(F)F)cc(-c3ccccc3F)cn2c1Cl [Compound 197, 3-Chloro-6-(2-fluoro-phenyl)-8-trifluoromethyl-imidazo[1,2-a]pyridine-2-carboxylic acid (thiophen-2-ylmethyl)-amide]",90.6%
20,"O=C(NCc1cccs1)c1nc2c(C(F)(F)F)cc(-c3cccc(F)c3)cn2c1Cl [Compound 196, 3-Chloro-6-(3-fluoro-phenyl)-8-trifluoromethyl-imidazo[1,2-a]pyridine-2-carboxylic acid (thiophen-2-ylmethyl)-amide]",94%
21,"O=C(c1nc2c(C(F)(F)F)cc(-c3ccoc3)cn2c1Cl)N1CCC(n2c(=O)[nH]c3ccccc32)CC1 [Compound 552, 1-[1-(3-Chloro-6-furan-3-yl-8-trifluoromethyl-imidazo[1,2-a]pyridine-2-carbonyl)-piperidin-4-yl]-1,3-dihydro-benzoimidazol-2-one]",6%
22,"O=C(c1nc2c(C(F)(F)F)cc(-c3ccoc3)cn2c1Cl)N1CC=C(c2ccc(F)cc2)CC1 [Compound 595, (3-Chloro-6-furan-3-yl-8-trifluoromethyl-imidazo[1,2-a]pyridin-2-yl)-[4-(4-fluoro-phenyl)-3,6-dihydro-2H-pyridin-1-yl]-methanone]",77.2%
23,"O=C(c1nc2c(C(F)(F)F)cc(-c3cn[nH]c3)cn2c1Br)N1CCC(c2ccc(F)cc2)C1 (centres unmarked) [Compound 256, [3-Bromo-6-(1H-pyrazol-4-yl)-8-trifluoromethyl-imidazo[1,2-a]pyridin-2-yl]-[3-(4-fluoro-phenyl)-pyrrolidin-1-yl]-methanone]",92%
